How the values were obtained:
NOD-iPS cells = assay: Dox-independent propagation of Dox-dependent NOD-iPS cells in supplemented mESM; type: cell-based, mouse (NOD); settings: mESM lacking Dox
From the text: FIGS. 4(A)-4(H) illustrate generation of genetically unmodified germline competent NOD ES cells. (A) Experimental outline for derivation of iPS lines that grow in the presence of small molecules and in the absence of Dox. Representative images of NOD iPS lines growing in mESM supplemented with the indicated small molecules or growth factors. (B) Single-cell cloning efficiency of NOD iPS cells in different growth conditions. WT or NOD-iPS cells grown in mESM and KP were sorted in 96 well plates and cultured in mESM supplemented with small molecules. The number of wells containing Nanog+ colonies was counted after 6 days. Efficiencies were normalized to that of C57B6/129F1-iPS cells (“permissive” controls) plated in mESM and defined as 100%. SD for average efficiencies from 2 experiments are shown. Student test P value compares KP/CH to PD/CH mESM conditions for NOD iPS cells. (C) Expansion of day E3.5 ICM derived NOD ES cells in the presence of KP, KP/CH or PD/CH and derivation of stable ES lines. Images of initial colonies observed at passage 2 after embryo dissociation are shown together with representative images at later passages. (D) Karyotype of NOD ES lines. (E) Immunostaining of NOD ES lines for pluripotency markers. Inhibitors used during cell line derivation and propagation are indicated. (F) Chimerism in adult mice generated from the indicated cell lines is evident by the presence of agouti (brown) and albino coat color originating from the NOD background. […] (G) Real-Time PCR analysis for endogenous expressed Oct4, c-Myc and Klf4 genes in NOD iPS and ES cells grown in the indicated conditions. Relative expression levels are normalized to levels detected in control 129 ES cells. (H) Southern analysis indicating correct targeting of the endogenous Nanog locus in NOD ES cells with Nanog-GFP knock-in targeting construct.
Small molecules have been identified to replace some of the reprogramming factors in iPS derivation (Huangfu et al., 2008; Shi et al., 2008). […]

C1.2 hiPSCs = assay: Screen for factors stabilizing C1 hiPSCs upon DOX withdrawal; type: cell-based, human; settings: C1.2 hiPSCs without DOX
Experimental: FIGS. 9(A)-9(D) show the in vitro stabilization of naïve human pluripotent stem cells. […] C1 cells were plated on feeders in N2B27 media with the indicated factors. p-values using student's t-test indicates significant change in comparison to cells grown in DOX/PD/CH/LIF conditions, which were defined as a control (100% survival). (B) Scheme for reverting hESCs to generate “naive-hESCs”. (C) Representative images of WIBR3 hESCs at different stages of the reversion process in PD/CH/LIF/FK (P indicates passage number). (D) Representative images of naive-WIBR3.5 hESC line, derived by plating WIBR3 hESCs in PD/CH/FK/LIF medium without transfection of exogenous factors. Magnifications of captured images are indicated. Naïve human pluripotent cells were grown in serum-free N2B27 based media. […] Throughout the manuscript, indicated passage numbers of naïve-hiPSC/hESCs indicates number of passages counted after induction of the naïve state. […]

hESCs = assay: Signaling dependence of pluripotent cell lines, conventional hESCs; type: cell-based, human; settings: normal growth medium, inhibitor or factor added
Experimental: Pluripotent cells were equally divided and plated on feeders in the indicated growth medium in which these cell lines are normally maintained, and 36 hours later the wells were supplemented with the indicated inhibitors or growth factors. After seven days, wells were fixed and stained to determine the relative percentage of colonies positive for pluripotency markers. SSEA1 staining was used for mouse stem cells. Colony formation was normalized to an internal control “Growth medium” without inhibitors (first left column). […] (B-C) Western blot analysis of total ERK1/2, phosphorylated ERK1/2 (pERK1/2) and phosphorylated Stat3 (pStat3). WIBR3 hESC and C1 hiPSC were grown in traditional bFGF/Activin containing media while naive-hESC/hiPSCs were grown in N2B27 PD/CH/FOR/LIF. ‘2×LIF’ indicates two fold increase in LIF concentration. […] Cells were passaged three times in the presence of puromycin. […] (E) RT-PCR expression of early germ cell markers in the presence or absence of BMP4/7/8 cytokines for 7 days. (F) Representative FISH analysis for XIST RNA (red) and Cot1 nuclear RNA (green). Pri-WIBR3.2 cell line was analyzed after passaging in conventional bFGF/serum-containing human ESC growth conditions.

naive-hESCs/hiPSCs = assay: Signaling dependence of pluripotent cell lines, naive-hESC/hiPSC; type: cell-based, human; settings: grown in PD/CH/FK/LIF, inhibitor or factor added
Experimental: (§1) Pluripotent cells were equally divided and plated on feeders in the indicated growth medium in which these cell lines are normally maintained, and 36 hours later the wells were supplemented with the indicated inhibitors or growth factors. After seven days, wells were fixed and stained to determine the relative percentage of colonies positive for pluripotency markers. SSEA1 staining was used for mouse stem cells. Colony formation was normalized to an internal control “Growth medium” without inhibitors (first left column). Normalized percentages lower than 5% are defined as “sensitivity” to the presence of the supplemented inhibitor. (B-C) Western blot analysis of total ERK1/2, phosphorylated ERK1/2 (pERK1/2) and phosphorylated Stat3 (pStat3). WIBR3 hESC and C1 hiPSC were grown in traditional bFGF/Activin containing media while naive-hESC/hiPSCs were grown in N2B27 PD/CH/FOR/LIF. ‘2×LIF’ indicates two fold increase in LIF concentration. (D) LIF/Stat3 is required for stabilization of naive-hESC/hiPSCs. Naïve NOD mESCs, WIBR3.5 and WIBR3.1 naive-hESC, and C1 naïve-hiPSCs were electroporated with a pBRY-CAGGS-flox-DsRedT4-IP control plasmid, a plasmid encoding a dominant negative Stat3 Y705F mutant (Stat3-DN), or a plasmid Stat3-C constitutively active mutant (pBRY-Stat3-CA). Cells were passaged three times in the presence of puromycin. After 20 days, colonies positive for pluripotency markers were counted and normalized to colonies from cells electroporated with empty vector (n=3 replicates for each condition). (E) RT-PCR expression of early germ cell markers in the presence or absence of BMP4/7/8 cytokines for 7 days. (F) Representative FISH analysis for XIST RNA (red) and Cot1 nuclear RNA (green). Pri-WIBR3.2 cell line was analyzed after passaging in conventional bFGF/serum-containing human ESC growth conditions. Numbers indicate average percentage of XIST positive nuclei counted.
(§2) Small molecules and cytokines were purchased from Tocris, Calbiochem or Sigma, and were supplemented as indicated at the following final concentration: JAK inhibitor (JAKi, 6 μM), Kenpaullone (KP, 5 μM), PD0325901 (PD, 1 μM); CHIR99021 (CH, […]), Forskolin (FK, 10 μM), FGF4-Receptor inhibitors PD173074 (0.1 μM) and SU5401 (2 μM); TGFβ/ALK inhibitors A83-01 (1 μM), RepSox (1 μM), ALK inhibitor (ALKi—SB431542, 2 μM); AICAR (0.5 mM); BixO1294 (1 μM); BayK8644 (1 μM); recombinant human BMP4 (10 ng/ml), recombinant human IL-6 (10 ng/ml), recombinant human TGFβ (500 ng/ml), Media with inhibitors was routinely replaced every 48 hours to sustain activity of compounds.

mEpiSCs = assay: Signaling dependence of pluripotent cell lines, mEpiSCs; type: cell-based, mouse; settings: normal growth medium, inhibitor or factor added
Experimental: as §1, §2

mESCs = assay: Signaling dependence of pluripotent cell lines, mESCs; type: cell-based, mouse; settings: normal growth medium, inhibitor or factor added
Experimental: Pluripotent cells were equally divided and plated on feeders in the indicated growth medium in which these cell lines are normally maintained, and 36 hours later the wells were supplemented with the indicated inhibitors or growth factors. After seven days, wells were fixed and stained to determine the relative percentage of colonies positive for pluripotency markers. SSEA1 staining was used for mouse stem cells. Colony formation was normalized to an internal control “Growth medium” without inhibitors (first left column). Normalized percentages lower than 5% are defined as “sensitivity” to the presence of the supplemented inhibitor. (B-C) Western blot analysis of total ERK1/2, phosphorylated ERK1/2 (pERK1/2) and phosphorylated Stat3 (pStat3). WIBR3 hESC and C1 hiPSC were grown in traditional bFGF/Activin containing media while naive-hESC/hiPSCs were grown in N2B27 PD/CH/FOR/LIF. ‘2×LIF’ indicates two fold increase in LIF concentration. (D) LIF/Stat3 is required for stabilization of naive-hESC/hiPSCs. Naïve NOD mESCs, WIBR3.5 and WIBR3.1 naive-hESC, and C1 naïve-hiPSCs were electroporated with a pBRY-CAGGS-flox-DsRedT4-IP control plasmid, a plasmid encoding a dominant negative Stat3 Y705F mutant (Stat3-DN), or a plasmid Stat3-C constitutively active mutant (pBRY-Stat3-CA). Cells were passaged three times in the presence of puromycin. After 20 days, colonies positive for pluripotency markers were counted and normalized to colonies from cells electroporated with empty vector (n=3 replicates for each condition). (E) RT-PCR expression of early germ cell markers in the presence or absence of BMP4/7/8 cytokines for 7 days. (F) Representative FISH analysis for XIST RNA (red) and Cot1 nuclear RNA (green). Pri-WIBR3.2 cell line was analyzed after passaging in conventional bFGF/serum-containing human ESC growth conditions. Numbers indicate average percentage of XIST positive nuclei counted. […]

Compound: Wnt3a
- Dox-independent growth of pluripotent NOD-iPS cells (NOD-iPS cells): supported Dox-independent growth

Compound: O=C(NOC[C@H](O)CO)c1ccc(F)c(F)c1Nc1ccc(I)cc1F [PD]
- role in the 13i+LIF cocktail on removing one inhibitor at a time (C1.2 hiPSCs): crucial components
- effect on pluripotency of conventional hESCs (hESCs): could not be propagated

Compound: Cc1c[nH]c(-c2cnc(NCCNc3ccc(C#N)cn3)nc2-c2ccc(Cl)cc2Cl)n1 [CHIR99021]
- Dox-independent growth of pluripotent NOD-iPS cells (NOD-iPS cells): supported Dox-independent growth
- role in the 13i+LIF cocktail on removing one inhibitor at a time (C1.2 hiPSCs): crucial components

Compound: Cc1cccc(-c2nn(C(=S)Nc3ccccc3)cc2-c2ccnc3ccccc23)n1 [A83-01]
- effect on pluripotency of naive-hESCs/hiPSCs (naive-hESCs/hiPSCs): maintained their pluripotent state
- effect on pluripotency of conventional hESCs (hESCs): rapidly differentiated
- effect on pluripotency of mEpiSCs (mEpiSCs): rapidly differentiated
- effect on pluripotency of mESCs (mESCs): maintained their pluripotent state

Compound: CCN(CC)CCCCNc1ncc2cc(-c3cc(OC)cc(OC)c3)c(NC(=O)NC(C)(C)C)nc2n1 [PD173074]
- effect on pluripotency of naive-hESCs/hiPSCs (naive-hESCs/hiPSCs): but not of naive-hESCs/hiPSCs or mESCs
- effect on pluripotency of conventional hESCs (hESCs): resulted in the differentiation
- effect on pluripotency of mEpiSCs (mEpiSCs): resulted in the differentiation

Compound: TGFβ
- effect on pluripotency of naive-hESCs/hiPSCs (naive-hESCs/hiPSCs): differentiated
- effect on pluripotency of mESCs (mESCs): differentiated
